Results reported in US20260325500A1, “METHODS AND COMPOSITIONS FOR TREATING ACUTE STRESS DISORDER” (BioXcel Therapeutics, Inc., priority 2022, published 2026).
Entries after “also recorded” stand apart in the source; their conditions may differ. Counter-ions that a name gives are not always drawn.

What was measured:
[1] = test system: Yohimbine-induced noradrenergic hyperarousal in Wistar rats; experiment: Elevated plus maze, yohimbine-induced noradrenergic hyperarousal, dose response (Example 3); type: in vivo; conditions: for Percent increase as referred to the Vehicle level, Entries / Percent increase as referred to the Vehicle level, Time: 60 min
Excerpt: (§1) Background: Yohimbine is an alpha 2-adrenergic receptor antagonist reported to trigger panic attacks in healthy volunteers and to exacerbate symptoms in patients with panic disorder (Charney et al., 1992 Acta Psychiatr Scand., Vol. 86 (4): 273-282). Peripheral administration of Yohimbine causes noradrenergic mediated hyperarousal in rats as assessed by the EPM paradigm.
(§2) Rationale: The drug yohimbine is a natural product used to test a specific pathway, noradrenergic-mediated hyper-arousal. It is well established that yohimbine is an alpha2-adrenergic receptor antagonist and activates the locus coeruleus (LC) and increases noradrenergic signaling (the opposite of alpha2-adrenergic agonists like dexmedetomidine and clonidine). Increased LC activity and noradrenergic signaling makes animals anxious and agitated which can be measured by using the elevated plus maze. In the elevated plus maze, rodents were in the closed arms and explored the open arms depending on their anxiety and agitation (rats and mice normally explore their environments extensively when calm). […] This behavior is correlated to increased level of anxiety caused by noradrenergic mediated hyperarousal.
Animal groups: Rats were distributed in 9 different experimental groups with 12 […] per group as illustrated in Table 6. Each experimental group was also coded so that the experimenter became unaware of the true experimental group at the time EPM trial.
Acclimatization: Male Wistar rats (Janvier; Le Genest St Isle-France) were used for the study. They were purchased at a body weight of 150 g and reached a body weight of about 220 g at the time of use. They were group-housed (3-4 rats per cage) and maintained in a room with controlled temperature (21-22° C.) and a reversed light-dark cycle (12 h/12 h; lights on: 17:30-05:30; lights off: 05:30-17:30).
Drug preparation: All compounds/drugs were prepared in normal saline (0.9% NaCl).
Yohimbine was prepared at a solution of 2.5 mg/mL which when injected i.p. at a dosage volume of 1 mL/kg results in a dose of 2.5 mg/kg. Diazepam was prepared at a solution of 1 mg/mL which when injected i.p. at a dosage volume of 1 mL/kg results in a dose of 1 mg/kg. Latrepirdine dihydrochloride hydrate was prepared at a solution of 7.5, 2.5, 0.75 and 0.25 mg/mL which when injected i.m. at a volume of 100 μL for a rat of 250 g results in doses of 3; 1; 0.3 and 0.1 mg/kg; respectively. Latrepirdine dihydrochloride hydrate was also prepared at […] which when administrated i.p. at a dosage volume of 1 mL/kg results in a dose of 3 mg/kg.
Experimental procedure: The rats were randomly assigned to one of the different experimental groups. Each animal was identified by its group name, cage number, series (day) of experiment, and a number (from 1 to 9) written with permanent ink on its tail. They were handled by an experimenter for about 3 min each day during 1 week prior to the day of EPM trial. The apparatus was a PVC maze covered with Plexiglas and subdivided into four equal exploratory arms (40×10 cm), which were all interconnected by a small platform (10×10 cm). The apparatus was placed 65 cm above the floor. Two arms were opened, and two others were closed with wall (high: 10 cm). After compound administration, rat was placed on the platform opposite a closed arm. The number of entries and the time spent in each arm were recorded during a 5 min period. The animal was considered as entered in an arm when it placed its four paws in the arm. The apparatus was cleaned between each animal using alcohol (70%). Urine and feces were removed from the maze. During the trials, animal handling and the visibility of the operator were minimized as much as possible.
Statistical analysis: Analysis of variance (ANOVA) was performed on the result data. Fisher's PLSD was used for pairwise comparisons and p value≤0.05 were considered significant. […]

[2] = test system: Yohimbine-induced noradrenergic mediated hyperarousal in Wistar rats; experiment: Elevated plus maze, yohimbine-induced noradrenergic mediated hyperarousal (Example 2); type: in vivo
Excerpt: as §1, §2
Animal groups: Male: Wistar rats were used in this study and were randomly divided to different experimental groups (12 animals per group).
Study drugs: Four test drugs with different mechanisms of action linked to agitation were chosen to find drugs that are effective in reducing yohimbine-induced agitation: (1) Fluvoxamine (selective serotonin reuptake inhibitor) (2) Dextromethorphan (modulator of NMDA signals) (3) Diazepam (modulator of gamma-aminobutyric acid (GABA) as a positive control) and (4) Latrepirdine (complex pharmacology).
The test drugs were procured from Sigma or Tocris. dextromethorphan from Sigma Aldrich, Cat No. D9684; latrepirdine from Sigma Aldrich, Cat No. D6196 or Tocris Cat No. 3201 diazepam and fluvoxamine Sigma Aldrich, Cat No. F2802 or Tocris, Cat No. 1033. All these test drugs were formulated in sufficient quantity in 0.9% saline except for fluvoxamine, which was formulated in 30% ethanol in 0.9% saline.
Apparatus: Elevated Plus Maze (EPM) was used (FIG. 1). The maze consisted of two closed arms and two open arms forming a cross, with a square center platform. All visible surfaces were made of black acrylic. Each arm of the maze was placed on a support column above the floor. Antistatic black vinyl curtains used for surrounding the EPM to make an enclosure.
Study design and dosing: Yohimbine was administered by intraperitoneal injection (i.p.) at a dose of 2.5 mg/kg (30 minutes prior to study) to induce agitation and the effects were assessed 30 minutes after yohimbine injection by measuring the number of open arm entries and exploration time in the EPM. The test drugs fluvoxamine, dextromethorphan and latrepirdine dihydrochloride hydrate were administered through intramuscular route and, diazepam through intraperitoneal route into the hindleg thigh muscle of rats (60 minutes prior to study; 30 minutes prior to yohimbine administration). Diazepam was injected 30 minutes intraperitonially prior to the assay i.e. along with yohimbine administration. The study design is illustrated in FIG. 2 and table 5.
After the test drug administration, the rat was placed on the platform opposite a closed arm. The number of entries and the time spent in each arm were recorded during a 5 min period. The animal was considered as entered in arm when it placed its four paws into the arm.
Statistical analysis: Analysis of variance (ANOVA) was performed on the result data. Fisher's PLSD was used for pairwise comparisons and p value≤0.05 was considered significant.

[3] = 0.1 mg/kg, i.m., yohimbine hydrochloride 2.5 mg/kg i.p.
[4] = 0.3 mg/kg, i.m., yohimbine hydrochloride 2.5 mg/kg i.p.
[5] = 1 mg/kg, i.m., yohimbine hydrochloride 2.5 mg/kg i.p.
[6] = 3 mg/kg, i.m., saline (yohimbine-free rats)
[7] = 3 mg/kg, i.m., yohimbine hydrochloride 2.5 mg/kg i.p.
[8] = 3 mg/kg, i.p., yohimbine hydrochloride 2.5 mg/kg i.p.
[9] = 3 mg/kg and 10 mg/kg, i.m., 60 min prior, yohimbine 2.5 mg/kg i.p.

Cc1ccc2c(c1)c1c(n2CCc2ccc(C)nc2)CCN(C)C1 [latrepirdine dihydrochloride hydrate]
Percent increase as referred to the Vehicle level, Entries [1, 3]: 21%
Percent increase as referred to the Vehicle level, Time [1, 3]: 21%
Percent increase as referred to the Vehicle level, Entries [1, 4]: 11%
Percent increase as referred to the Vehicle level, Time [1, 4]: 73%
Percent increase as referred to the Vehicle level, Entries [1, 5]: 106%
Percent increase as referred to the Vehicle level, Time [1, 5]: 274%
EPM performance of saline-treated rats (yohimbine-free) ([1]; 3 mg/kg i.m.): did not significantly modify the EPM performance
EPM performance, i.m. compared with i.p. route ([1]; 3 mg/kg, yohimbine rats): comparable to that of specimens treated intraperitoneally
Percent increase as referred to the Vehicle level, Entries [1, 6]: 167%
Percent increase as referred to the Vehicle level, Time [1, 6]: 377%
Percent increase as referred to the Vehicle level, Entries [1, 7]: 172%
Percent increase as referred to the Vehicle level, Time [1, 7]: 392%
Percent increase as referred to the Vehicle level, Entries [1, 8]: 183%
Percent increase as referred to the Vehicle level, Time [1, 8]: 486%
noradrenergic mediated hyperarousal in yohimbine administered rats ([1]; 1 and 3 mg/kg): Conclusion: The results showed that latrepirdine dihydrochloride hydrate (at 1 and 3 mg/kg) significantly reduced noradrenergic mediated hyperarousal in yohimbine administered rats in dose-dependent manner (see table 7 and FIGS. 5 and 6).
number of visits to and time spent into the open arms, significance ([1]; i.m., yohimbine administered rats, 0.1-3 mg/kg): effect was significant at the doses of 1 and 3 mg/kg
open arm entries and time spent, comparison with diazepam ([2]; 3 mg/kg and 10 mg/kg, i.m. versus diazepam 1 mg/kg, i.p.): comparable to diazepam
number of open arm entries [2, 9]: significantly increased number of open arm entries; also recorded: significantly increased the number of entries into the open arms
time spent in the open arms (exploration time) [2, 9]: increased exploration time; also recorded: significantly increased
yohimbine-induced noradrenergic mediated hyperarousal ([2]; latrepirdine 3 mg/kg and 10 mg/kg, i.m., yohimbine 2.5 mg/kg i.p.): reversed yohimbine-induced noradrenergic mediated hyperarousal
